# Measured values reported in patent US20040077634A1, “Treatment of diseases characterized by excessive or insufficient cell death” (priority 2001, published 2004).
# Experiments:
# recombinant caspase-9 = target: T1, recombinant caspase-9 (Homo sapiens, UniProt P55211); assay: Recombinant caspase-9 activity, cleavage of LEHD-AFC; type: biochemical; conditions: 25 to 100 μM; LEHD-AFC substrate
# T1 sequence (P55211 1-315 limits assumed): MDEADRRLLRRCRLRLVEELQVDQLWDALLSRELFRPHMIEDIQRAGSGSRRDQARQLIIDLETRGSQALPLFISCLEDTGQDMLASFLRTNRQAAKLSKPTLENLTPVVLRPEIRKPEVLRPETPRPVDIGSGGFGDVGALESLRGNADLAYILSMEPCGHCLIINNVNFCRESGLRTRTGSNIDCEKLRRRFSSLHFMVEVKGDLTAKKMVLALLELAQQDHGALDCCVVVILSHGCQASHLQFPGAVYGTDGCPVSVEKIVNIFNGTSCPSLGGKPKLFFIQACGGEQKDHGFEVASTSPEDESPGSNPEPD
# T1 sequence (P55211 331-416 limits assumed): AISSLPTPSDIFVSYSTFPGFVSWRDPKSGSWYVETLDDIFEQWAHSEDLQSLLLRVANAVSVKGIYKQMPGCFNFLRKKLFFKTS
# Description: The inhibition of the DEVDase activity in the in vitro caspase activation system could be due to a direct inhibition of caspase-9, -3, or -7 activities, or to the inhibition of the apoptosome formation. To test if compounds a, f, and g were specific caspase inhibitors, recombinant caspase-3 and caspase-9 were incubated with the three compounds and the enzymatic activities of caspases were monitored by analysing the cleavage of the caspase-3 substrate DEVD-AFC or the caspase-9 substrate LEHD-AFC, respectively.
# [1] = system: caspase-9, caspase-3 and caspase-7 processing; DFF45/ICAD and PARP cleavage; assay: Processing of caspases and caspase substrates in Cc/dATP-stimulated cell extract, Western blotting; type: biochemical
# Description: Activation of endogene caspases is induced by addition of 1 mM dATP and 1 μM horse heart cytochrome c to cytosolic extract (protein concentration; 5-10 mg/ml) in the presence of DEVD-AFC and the compound (final concentration 100 μM). Activated DEVD'ases (AFC release) is measured by fluorometry in 96-well plates at 37° C. After end measurements 2× LSB-Mechaptoethanol are added to the samples for assessment of caspase processing by immunoblot analysis.
# Next, the effect of the compounds on the processing of caspases and caspase substrates in the in vitro model system was analysed by Western blotting. Caspase-9, caspase-3 and caspase-7 were processed into p35, p17, and p20 active fragments, respectively, in response to Cc/dATP. Accordingly, Cc/dATP induced a threefold induction in DEVDase activity and cleavage of the caspase-3 substrates DFF45/ICAD and PARP.
# [2] = target: T2, apoptosome complex (Apaf-1 and caspase-9) (Homo sapiens, UniProt O14727+P55211); assay: Apoptosome formation: co-immunoprecipitation of Apaf-1 with caspase-9 in cell extract; type: binding; conditions: 100 μM
# T2 construct: Caspase-9 antibody precipitated practically all caspase-9 present in the cell extract; endogenous in cells; host or cells: cell extract
# T2 sequence (O14727 1-1248): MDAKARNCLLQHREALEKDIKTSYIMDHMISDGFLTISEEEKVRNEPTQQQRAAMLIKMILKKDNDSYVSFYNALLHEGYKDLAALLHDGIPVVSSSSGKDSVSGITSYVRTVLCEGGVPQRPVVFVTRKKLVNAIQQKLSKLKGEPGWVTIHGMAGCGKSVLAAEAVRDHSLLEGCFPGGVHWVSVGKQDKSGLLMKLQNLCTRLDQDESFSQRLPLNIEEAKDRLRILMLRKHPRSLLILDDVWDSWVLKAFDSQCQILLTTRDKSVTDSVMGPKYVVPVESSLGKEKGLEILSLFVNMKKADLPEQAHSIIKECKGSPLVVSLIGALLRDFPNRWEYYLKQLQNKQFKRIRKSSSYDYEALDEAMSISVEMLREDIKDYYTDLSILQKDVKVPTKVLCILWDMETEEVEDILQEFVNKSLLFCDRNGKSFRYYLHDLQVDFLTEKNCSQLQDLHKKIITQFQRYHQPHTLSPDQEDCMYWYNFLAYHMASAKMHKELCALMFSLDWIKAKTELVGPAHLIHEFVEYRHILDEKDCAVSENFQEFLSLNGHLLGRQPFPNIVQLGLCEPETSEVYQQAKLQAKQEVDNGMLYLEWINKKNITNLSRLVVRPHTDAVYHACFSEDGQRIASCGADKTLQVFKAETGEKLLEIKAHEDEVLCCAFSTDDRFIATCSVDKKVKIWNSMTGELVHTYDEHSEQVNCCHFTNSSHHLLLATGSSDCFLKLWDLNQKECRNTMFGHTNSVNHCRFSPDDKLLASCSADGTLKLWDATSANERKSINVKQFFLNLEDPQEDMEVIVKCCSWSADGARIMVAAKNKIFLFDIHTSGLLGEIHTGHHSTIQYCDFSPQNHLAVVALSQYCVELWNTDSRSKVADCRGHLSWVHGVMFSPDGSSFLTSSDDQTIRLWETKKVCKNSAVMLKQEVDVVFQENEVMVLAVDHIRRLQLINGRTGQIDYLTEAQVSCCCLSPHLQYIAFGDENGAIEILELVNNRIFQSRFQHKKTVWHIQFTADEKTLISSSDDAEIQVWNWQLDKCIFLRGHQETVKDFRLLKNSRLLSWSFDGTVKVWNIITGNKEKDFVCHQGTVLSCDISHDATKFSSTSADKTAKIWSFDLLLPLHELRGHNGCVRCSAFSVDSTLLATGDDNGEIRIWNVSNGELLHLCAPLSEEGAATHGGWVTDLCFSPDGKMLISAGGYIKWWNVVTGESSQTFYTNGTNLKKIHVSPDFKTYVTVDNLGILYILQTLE
# T2 sequence (P55211 1-416): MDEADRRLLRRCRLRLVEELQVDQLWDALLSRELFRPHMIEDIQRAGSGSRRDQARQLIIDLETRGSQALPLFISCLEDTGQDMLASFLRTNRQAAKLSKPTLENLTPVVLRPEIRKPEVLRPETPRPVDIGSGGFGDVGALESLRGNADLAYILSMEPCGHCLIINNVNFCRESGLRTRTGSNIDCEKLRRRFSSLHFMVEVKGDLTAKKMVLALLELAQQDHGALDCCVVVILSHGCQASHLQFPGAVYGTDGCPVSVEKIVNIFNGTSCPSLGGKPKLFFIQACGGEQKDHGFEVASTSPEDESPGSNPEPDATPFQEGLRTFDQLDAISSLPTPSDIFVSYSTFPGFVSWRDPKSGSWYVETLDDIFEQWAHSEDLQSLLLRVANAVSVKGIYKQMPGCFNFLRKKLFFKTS
# Description: Next, it was tested whether compound f interferes with the formation of apoptosome complex in response to Cc/dATP. Cell extracts were incubated with Cc/dATP in the presence or absence of 100 μM compound f or 1 μM zVAD-fmk for 1 hour prior to the immunoprecipitation (IP) of caspase-9. […] Hsp90, which has been proposed to associate with Apaf-1 and prevent oligomerization and caspase-9 recruitment, was not co-immunoprecipitated with caspase-9.
# [3] = system: caspase-3-like proteases in MCF-casp3 cells; assay: TNF-induced DEVDase activity in MCF-casp3 cells; type: cell-based; conditions: TNF 5 ng/ml, 50 μM
# Description: The ability of compound f to inhibit cell death was examined in MCF-neo and MCF-casp3 cells. […] To analyse the mechanism of the action of compound f in alive cells, MCF-casp3 cells were treated with TNF (5 ng/ml) in the presence of 50 μM compound f and the activity of caspase-3-like proteases was measured by a DEVDase enzyme assay.
smiles,measurement,setting,value
"O=C(Nc1cccc(C(F)(F)F)c1)Nc1cc(Cl)ccc1C(=O)O [Compound f, [N-(2-Carboxy-5-chlorophenyl)-N′-(3-trifluoromethylphenyl)]urea]",inhibition of recombinant caspase-9 activity,recombinant caspase-9,failed to inhibit
same,processing of caspase-9,"[1]; 10 μM, compared with the vehicle control",slightly more procaspase-9 remained unprocessed
same,processing of caspase-9,[1]; 100 μM,almost completely inhibited
same,"inhibition of caspase-9, -3 and -7 processing and DFF45/ICAD and PARP cleavage","[1]; cell extracts stimulated with Cc/dATP, Western blot, dose dependence",dose-dependent inhibition
same,ability of the caspase-9 antibody to precipitate caspase-9,[2],no effect
same,co-immunoprecipitation of Apaf-1 and caspase-9,[2]; 1 hour with Cc/dATP prior to IP of caspase-9,significantly inhibited
same,TNF-induced DEVDase activity,[3],significantly reduced
